Test results taken from US12565475B2, “Small molecule compound inhibiting signal transmission path of TLR7 and TLR9 and use thereof” (AJOU UNIVERSITY INDUSTRY-ACADEMIC COOPERATION FOUNDATION, priority 2019, dated 2026).

Columns and labels:
[1] = target: T1, TLR1/2 (Mus musculus, UniProt Q9EPQ1+Q9QUN7); assay: TLR1/2-mediated TNF-α secretion (Pam3CSK4), ELISA; assay type: cell-based, murine; conditions: RAW 264.7, 10 or 20 μM
T1 construct: endogenous in cells; host or cells: RAW 264.7
Method: (§1) Agonists specific to TLR1/TLR2 (Pam3CSK4), TLR2/TLR6 (FSL-1), TLR3 (Poly I:C), TLR7 (imiquimod), and TLR8 (TL8-506) were purchased from InvivoGen Ltd. (Hong-Kong, China), and a TLR4-specific agonist (LPS from E. coli O111:B4) was purchased from Sigma-Aldrich, Inc. For TLR9-specific stimulation, class C CpG-ODN (ODN2395, 5′-TCGTCGTTTTCGGCGCGCGCCG-3′) having full phosphorothioate backbone modification was synthesized (Bioneer, Inc., Daejeon, Korea). All TLR agonists were dissolved in deionized water and applied to a culture media for TLR activation. The cells were treated with test compounds or a control medium for 1 hour, and then stimulated with a TLR agonist for 4 hours, or 24 hours in the case of poly(I:C), and the cytokine secretion was monitored.
(§2) RAW 264.7 or differentiated THP-1 cell lines were seeded onto a 96-well culture plate at a density of 2×10^4 cells/well. The cells were treated with test compounds for 1 hour followed by the stimulation with TLR agonists for 4 hours. The supernatant was transferred to pre-coated assay plates, and the secretion levels of mouse and human TNF-α were measured by respective ELISA kits (Invitrogen, Carlsbad, CA, USA). […] Absorbance was measured by a microplate reader spectrophotometer (Molecular Devices, Inc., San Jose, CA, USA), and data was interpolated from a standard curve using SoftMax Pro 5.3 software (Molecular Devices, Inc.). […]

[2] = target: T2, TLR4 (Mus musculus, UniProt Q9QUK6); assay: TLR4-mediated TNF-α secretion (LPS), ELISA; assay type: cell-based, murine; conditions: RAW 264.7, 10 or 20 μM
T2 construct: endogenous in cells; host or cells: RAW 264.7
T2 sequence (Q9QUK6 26-835): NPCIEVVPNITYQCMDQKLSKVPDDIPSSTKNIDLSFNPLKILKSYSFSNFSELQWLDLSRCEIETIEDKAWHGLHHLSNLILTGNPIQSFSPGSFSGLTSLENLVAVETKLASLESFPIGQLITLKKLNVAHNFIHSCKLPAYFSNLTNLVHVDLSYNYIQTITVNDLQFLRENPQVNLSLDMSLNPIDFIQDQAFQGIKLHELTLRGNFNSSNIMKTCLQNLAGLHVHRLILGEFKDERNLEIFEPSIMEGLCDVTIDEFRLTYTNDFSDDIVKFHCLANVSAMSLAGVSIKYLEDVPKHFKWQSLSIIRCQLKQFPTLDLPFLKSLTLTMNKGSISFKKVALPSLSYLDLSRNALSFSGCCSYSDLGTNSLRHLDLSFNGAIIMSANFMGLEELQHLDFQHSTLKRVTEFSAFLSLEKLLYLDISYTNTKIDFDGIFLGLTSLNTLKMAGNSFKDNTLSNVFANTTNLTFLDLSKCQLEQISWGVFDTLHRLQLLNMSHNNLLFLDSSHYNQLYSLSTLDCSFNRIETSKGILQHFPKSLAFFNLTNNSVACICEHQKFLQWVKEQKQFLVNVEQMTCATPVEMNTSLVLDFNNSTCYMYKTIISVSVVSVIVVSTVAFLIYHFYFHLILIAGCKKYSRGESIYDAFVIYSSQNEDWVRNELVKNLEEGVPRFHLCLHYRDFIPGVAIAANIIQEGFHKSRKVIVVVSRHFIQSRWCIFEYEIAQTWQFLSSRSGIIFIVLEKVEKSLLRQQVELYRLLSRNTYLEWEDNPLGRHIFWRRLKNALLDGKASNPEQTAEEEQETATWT
T2 sequence (Q9JHF9 19-160 partner): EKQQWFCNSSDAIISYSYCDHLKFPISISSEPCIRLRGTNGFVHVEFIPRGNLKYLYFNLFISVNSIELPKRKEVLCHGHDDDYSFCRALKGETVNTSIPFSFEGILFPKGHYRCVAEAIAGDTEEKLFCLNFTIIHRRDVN
Method: as §1, §2

T1 sequence (Q9EPQ1 26-795): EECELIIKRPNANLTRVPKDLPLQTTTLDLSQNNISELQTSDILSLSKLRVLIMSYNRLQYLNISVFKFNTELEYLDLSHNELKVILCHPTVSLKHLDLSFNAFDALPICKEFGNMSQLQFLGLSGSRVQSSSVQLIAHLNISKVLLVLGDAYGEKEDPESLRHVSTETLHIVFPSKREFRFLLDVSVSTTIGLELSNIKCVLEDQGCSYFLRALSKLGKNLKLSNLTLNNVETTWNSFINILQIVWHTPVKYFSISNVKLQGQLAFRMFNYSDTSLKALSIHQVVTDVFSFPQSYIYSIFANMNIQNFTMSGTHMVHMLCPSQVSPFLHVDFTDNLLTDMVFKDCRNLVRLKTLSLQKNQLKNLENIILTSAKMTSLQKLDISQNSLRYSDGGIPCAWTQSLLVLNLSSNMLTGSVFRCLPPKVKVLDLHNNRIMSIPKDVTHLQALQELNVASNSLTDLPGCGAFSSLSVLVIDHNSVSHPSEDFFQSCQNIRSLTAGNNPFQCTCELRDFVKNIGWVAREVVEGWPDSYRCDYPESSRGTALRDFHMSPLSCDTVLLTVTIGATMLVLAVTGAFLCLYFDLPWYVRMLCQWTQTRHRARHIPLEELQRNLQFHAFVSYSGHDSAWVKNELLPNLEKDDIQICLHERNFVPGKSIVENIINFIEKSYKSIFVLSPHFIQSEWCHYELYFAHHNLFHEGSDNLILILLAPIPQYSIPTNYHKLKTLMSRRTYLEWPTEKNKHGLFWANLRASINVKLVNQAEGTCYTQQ
T1 sequence (Q9QUN7 25-784): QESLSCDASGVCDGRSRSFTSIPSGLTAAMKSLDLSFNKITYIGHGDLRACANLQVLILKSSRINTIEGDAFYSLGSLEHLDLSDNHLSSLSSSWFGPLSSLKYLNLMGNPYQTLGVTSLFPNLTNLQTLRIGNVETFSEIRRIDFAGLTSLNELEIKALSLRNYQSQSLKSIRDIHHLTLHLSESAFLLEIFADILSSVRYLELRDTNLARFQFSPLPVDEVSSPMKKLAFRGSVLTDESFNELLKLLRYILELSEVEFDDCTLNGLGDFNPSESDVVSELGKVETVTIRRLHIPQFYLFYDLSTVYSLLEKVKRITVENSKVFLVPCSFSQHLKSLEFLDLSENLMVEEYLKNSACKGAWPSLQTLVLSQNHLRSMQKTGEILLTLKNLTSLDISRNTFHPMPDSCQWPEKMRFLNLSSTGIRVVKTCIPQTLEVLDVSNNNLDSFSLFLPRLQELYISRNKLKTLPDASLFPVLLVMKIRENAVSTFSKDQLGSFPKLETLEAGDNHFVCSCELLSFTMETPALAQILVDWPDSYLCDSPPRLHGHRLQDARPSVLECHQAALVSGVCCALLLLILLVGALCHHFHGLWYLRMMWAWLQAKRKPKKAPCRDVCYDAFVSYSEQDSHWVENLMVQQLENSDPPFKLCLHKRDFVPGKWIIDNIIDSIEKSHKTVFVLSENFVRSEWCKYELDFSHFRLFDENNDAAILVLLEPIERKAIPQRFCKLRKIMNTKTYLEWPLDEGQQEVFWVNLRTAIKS

- effect on TLR1/2-mediated cytokine (TNF-α) production [1]: no effect
- effect on TLR4-mediated cytokine (TNF-α) production [2]: no effect
Structure (SMILES): COc1ccc(CNc2ncc(-c3ccc4c(c3)OCO4)n2C)c(OC)c1 [TIC10-7, 5-(2H-1,3-benzodioxol-5-yl)-N-[(2,4-dimethoxyphenyl)methyl]-1-methyl-1H-imidazol-2-amine]
